Laboratory results published in PubChem BioAssay AID212 (DTP/NCI, 2004).
Several values for one entry are separate records, joined by “and”; a condition that tells them apart may be missing. Equal entries are not always repeated. Inconclusive results are not listed.

System: BDF1 mice, colon carcinoma 38 sc, T/C %
Experiment: NCI In Vivo Anticancer Drug Screen. Data for tumor model Colon Carcinoma 38 (subcutaneous) in B6D2F1 (BDF1) mice
Details: endpoint: median tumor weight (est.), schedule: Q07DX002 (ip), higher = larger tumour
Method in brief: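 T/C readout: treated group (T) measurement over vehicle control group (C) measurement. Endpoint is survival or tumor size in mice bearing a transplanted tumor.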

Nc1ncn(C2CC(O)C(CO)O2)c(=O)n1 (centres undefined)
T/C (dose: 0.5 mg/kg/injection, vehicle: Klucel (hydroxypropylcellulose) (HPC)): 102 % of control
T/C (dose: 0.5 mg/kg/injection, vehicle: saline): 90 % of control
T/C (dose: 1.0 mg/kg/injection, vehicle: Klucel (hydroxypropylcellulose) (HPC)): 113 % of control
T/C (dose: 1.0 mg/kg/injection, vehicle: saline): 99 % of control
T/C (dose: 2.0 mg/kg/injection, vehicle: Klucel (hydroxypropylcellulose) (HPC)): 86 % of control
T/C (dose: 2.0 mg/kg/injection, vehicle: saline): 75 % of control
T/C (dose: 3.0 mg/kg/injection, vehicle: saline): 14 % of control and 34 % of control
T/C (dose: 4.0 mg/kg/injection, vehicle: Klucel (hydroxypropylcellulose) (HPC)): 106 % of control
T/C (dose: 4.0 mg/kg/injection, vehicle: saline): 43 % of control
T/C (dose: 6.0 mg/kg/injection, vehicle: saline): 29 % of control and 46 % of control
T/C (dose: 8.0 mg/kg/injection, vehicle: Klucel (hydroxypropylcellulose) (HPC)): 60 % of control
T/C (dose: 8.0 mg/kg/injection, vehicle: saline): 28 % of control
T/C (dose: 12.0 mg/kg/injection, vehicle: saline): 23 % of control
T/C (dose: 16.0 mg/kg/injection, vehicle: Klucel (hydroxypropylcellulose) (HPC)): 41 % of control
T/C (dose: 16.0 mg/kg/injection, vehicle: saline): 22 % of control
T/C (dose: 32.0 mg/kg/injection, vehicle: Klucel (hydroxypropylcellulose) (HPC)): 43 % of control
T/C (dose: 32.0 mg/kg/injection, vehicle: saline): 4 % of control

CN(C)c1ncnc2c1ncn2C1OC(CO)C(N)C1O (centres undefined)
T/C (dose: 12.5 mg/kg/injection, vehicle: saline): 110 % of control
T/C (dose: 25.0 mg/kg/injection, vehicle: saline): 85 % of control
T/C (dose: 50.0 mg/kg/injection, vehicle: saline): 105 % of control
T/C (dose: 100.0 mg/kg/injection, vehicle: saline): 106 % of control
T/C (dose: 200.0 mg/kg/injection, vehicle: saline): 63 % of control

CCC(C)C(=O)O[C@H]1C(=O)O[C@@H]2C[C@H]3C(C)=CC(=O)[C@@H](O)[C@]3(C)[C@H]3[C@@H](O)[C@H](O)[C@@]4(C)OC[C@]32[C@@H]14 (some centres undefined)
T/C (dose: 1.25 mg/kg/injection, vehicle: saline + alcohol): 45 % of control
T/C (dose: 5.0 mg/kg/injection, vehicle: saline + alcohol): 27 % of control and 50 % of control
